According to PubChem BioAssay AID1963451 (Molecular Pharmacology Branch, DTP, NCI, 2024):

Tested on: 521955-158-R6-J3-PDC complex spheroid growth, % test/control
Assay: Anticancer human tumor 521955-158-R6-J3-PDC patient-derived pancreatic carcinoma cell line growth inhibition [Asc]
Conditions: for IC50: curve of first compound; for viability, T/C: stronger effect = lower value
How it was run: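 Tumor cells were grown as multicellular spheroids with stromal HUVEC and mesenchymal stem cells and treated singly or in combination. Concentrations fell in half-log steps from the clinical Cmax, or from 10 microM where none was known.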
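Also: spheroids exposed to compounds for 7 days.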
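For viability, T/C in this document: 100% = DMSO vehicle control wells.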

Cn1ncnc1[C@H]1c2n[nH]c(=O)c3cc(F)cc(c23)N[C@@H]1c1ccc(F)cc1 + CCN1C(C(=O)NC23CCC(C(=O)O)(CC2)CC3)C(c2cccc(Cl)c2F)C2(C(=O)Nc3cc(Cl)ccc32)C12CCCCC2
IC50 (second compound 0.00949 µM): > 0.1 µM
IC50 (second compound 0.03 µM): > 0.1 µM
IC50 (second compound 0.0949 µM): > 0.1 µM
IC50 (second compound 0.3 µM): > 0.1 µM
IC50 (second compound 0.949 µM): > 0.1 µM
IC50 (second compound 3 µM): > 0.1 µM
viability, T/C (second compound 0.00949 µM, first compound 0.000316 µM): 114%
viability, T/C (second compound 0.00949 µM, first compound 0.001 µM): 102%
viability, T/C (second compound 0.00949 µM, first compound 0.00316 µM): 98.8%
viability, T/C (second compound 0.00949 µM, first compound 0.01 µM): 91.7%
viability, T/C (second compound 0.00949 µM, first compound 0.0316 µM): 78.9%
viability, T/C (second compound 0.00949 µM, first compound 0.1 µM): 91.2%
viability, T/C (second compound 0.03 µM, first compound 0.000316 µM): 100%
viability, T/C (second compound 0.03 µM, first compound 0.001 µM): 94.1%
viability, T/C (second compound 0.03 µM, first compound 0.00316 µM): 100%
viability, T/C (second compound 0.03 µM, first compound 0.01 µM): 99.5%
viability, T/C (second compound 0.03 µM, first compound 0.0316 µM): 97.5%
viability, T/C (second compound 0.03 µM, first compound 0.1 µM): 94.6%
viability, T/C (second compound 0.0949 µM, first compound 0.000316 µM): 95.7%
viability, T/C (second compound 0.0949 µM, first compound 0.001 µM): 94.8%
viability, T/C (second compound 0.0949 µM, first compound 0.00316 µM): 101%
viability, T/C (second compound 0.0949 µM, first compound 0.01 µM): 102%
viability, T/C (second compound 0.0949 µM, first compound 0.0316 µM): 94.3%
viability, T/C (second compound 0.0949 µM, first compound 0.1 µM): 98.9%
viability, T/C (second compound 0.3 µM, first compound 0.000316 µM): 97.2%
viability, T/C (second compound 0.3 µM, first compound 0.001 µM): 97.7%
viability, T/C (second compound 0.3 µM, first compound 0.00316 µM): 99.4%
viability, T/C (second compound 0.3 µM, first compound 0.01 µM): 80.5%
viability, T/C (second compound 0.3 µM, first compound 0.0316 µM): 98.3%
viability, T/C (second compound 0.3 µM, first compound 0.1 µM): 102%
viability, T/C (second compound 0.949 µM, first compound 0.000316 µM): 104%
viability, T/C (second compound 0.949 µM, first compound 0.001 µM): 100%
viability, T/C (second compound 0.949 µM, first compound 0.00316 µM): 114%
viability, T/C (second compound 0.949 µM, first compound 0.01 µM): 87.5%
viability, T/C (second compound 0.949 µM, first compound 0.0316 µM): 96.3%
viability, T/C (second compound 0.949 µM, first compound 0.1 µM): 99.8%
viability, T/C (second compound 3 µM, first compound 0.000316 µM): 100%
viability, T/C (second compound 3 µM, first compound 0.001 µM): 90.4%
viability, T/C (second compound 3 µM, first compound 0.00316 µM): 108%
viability, T/C (second compound 3 µM, first compound 0.01 µM): 82%
viability, T/C (second compound 3 µM, first compound 0.0316 µM): 98.6%
viability, T/C (second compound 3 µM, first compound 0.1 µM): 99%

Cc1nc(N2CCC3(CC2)COC(C)C3N)c(CO)nc1Sc1ccnc(N)c1Cl (stereo unspecified) + CCN1C(C(=O)NC23CCC(C(=O)O)(CC2)CC3)C(c2cccc(Cl)c2F)C2(C(=O)Nc3cc(Cl)ccc32)C12CCCCC2
IC50 (second compound 0.00949 µM): > 3 µM
IC50 (second compound 0.03 µM): > 3 µM
IC50 (second compound 0.0949 µM): > 3 µM
IC50 (second compound 0.3 µM): > 3 µM
IC50 (second compound 0.949 µM): > 3 µM
IC50 (second compound 3 µM): > 3 µM
viability, T/C (second compound 0.00949 µM, first compound 0.00949 µM): 128%
viability, T/C (second compound 0.00949 µM, first compound 0.03 µM): 107%
viability, T/C (second compound 0.00949 µM, first compound 0.0949 µM): 92.8%
viability, T/C (second compound 0.00949 µM, first compound 0.3 µM): 93.8%
viability, T/C (second compound 0.00949 µM, first compound 0.949 µM): 77.8%
viability, T/C (second compound 0.00949 µM, first compound 3 µM): 74.5%
viability, T/C (second compound 0.03 µM, first compound 0.00949 µM): 109%
viability, T/C (second compound 0.03 µM, first compound 0.03 µM): 104%
viability, T/C (second compound 0.03 µM, first compound 0.0949 µM): 91%
viability, T/C (second compound 0.03 µM, first compound 0.3 µM): 106%
viability, T/C (second compound 0.03 µM, first compound 0.949 µM): 93.8%
viability, T/C (second compound 0.03 µM, first compound 3 µM): 85.8%
viability, T/C (second compound 0.0949 µM, first compound 0.00949 µM): 115%
viability, T/C (second compound 0.0949 µM, first compound 0.03 µM): 113%
viability, T/C (second compound 0.0949 µM, first compound 0.0949 µM): 106%
viability, T/C (second compound 0.0949 µM, first compound 0.3 µM): 82.6%
viability, T/C (second compound 0.0949 µM, first compound 0.949 µM): 82.2%
viability, T/C (second compound 0.0949 µM, first compound 3 µM): 79.8%
viability, T/C (second compound 0.3 µM, first compound 0.00949 µM): 112%
viability, T/C (second compound 0.3 µM, first compound 0.03 µM): 82.6%
viability, T/C (second compound 0.3 µM, first compound 0.0949 µM): 113%
viability, T/C (second compound 0.3 µM, first compound 0.3 µM): 95%
viability, T/C (second compound 0.3 µM, first compound 0.949 µM): 83%
viability, T/C (second compound 0.3 µM, first compound 3 µM): 92.6%
viability, T/C (second compound 0.949 µM, first compound 0.00949 µM): 133%
viability, T/C (second compound 0.949 µM, first compound 0.03 µM): 104%
viability, T/C (second compound 0.949 µM, first compound 0.0949 µM): 93.5%
viability, T/C (second compound 0.949 µM, first compound 0.3 µM): 92.4%
viability, T/C (second compound 0.949 µM, first compound 0.949 µM): 82.2%
viability, T/C (second compound 0.949 µM, first compound 3 µM): 83.1%
viability, T/C (second compound 3 µM, first compound 0.00949 µM): 114%
viability, T/C (second compound 3 µM, first compound 0.03 µM): 90.2%
viability, T/C (second compound 3 µM, first compound 0.0949 µM): 104%
viability, T/C (second compound 3 µM, first compound 0.3 µM): 84.1%
viability, T/C (second compound 3 µM, first compound 0.949 µM): 87.5%
viability, T/C (second compound 3 µM, first compound 3 µM): 72.3%

C#Cc1c(F)ccc2cc(O)cc(-c3ncc4c(N5CC6CCC(C5)N6)nc(OCC56CCCN5CC(F)C6)nc4c3F)c12 (stereo unspecified) + Cc1c(S(C)(=O)=O)c(-c2cc(F)cc(N3CCN(c4ccc(NS(=O)(=O)c5ccc(NC(CCN6CCC(C(=O)OCCCP(=O)(O)O)CC6)CSc6ccccc6)c(S(=O)(=O)C(F)(F)F)c5)cc4)CC3)c2)c(-c2ccc(Cl)cc2)n1C(C)C
IC50 (second compound 0.0316 µM): < 0.0316 µM
IC50 (second compound 0.1 µM): < 0.0316 µM
IC50 (second compound 0.316 µM): < 0.0316 µM
IC50 (second compound 1 µM): < 0.0316 µM
IC50 (second compound 3.16 µM): < 0.0316 µM
IC50 (second compound 10 µM): < 0.0316 µM
viability, T/C (second compound 0.0316 µM, first compound 0.0316 µM): 49.8%
viability, T/C (second compound 0.0316 µM, first compound 0.1 µM): 44.9%
viability, T/C (second compound 0.0316 µM, first compound 0.316 µM): 23.1%
viability, T/C (second compound 0.0316 µM, first compound 1 µM): 24%
viability, T/C (second compound 0.0316 µM, first compound 3.16 µM): 18.4%
viability, T/C (second compound 0.0316 µM, first compound 10 µM): 15.9%
viability, T/C (second compound 0.1 µM, first compound 0.0316 µM): 46.2%
viability, T/C (second compound 0.1 µM, first compound 0.1 µM): 31.1%
viability, T/C (second compound 0.1 µM, first compound 0.316 µM): 23.3%
viability, T/C (second compound 0.1 µM, first compound 1 µM): 18.4%
viability, T/C (second compound 0.1 µM, first compound 3.16 µM): 17.8%
viability, T/C (second compound 0.1 µM, first compound 10 µM): 17.1%
viability, T/C (second compound 0.316 µM, first compound 0.0316 µM): 31.6%
viability, T/C (second compound 0.316 µM, first compound 0.1 µM): 34.9%
viability, T/C (second compound 0.316 µM, first compound 0.316 µM): 15.9%
viability, T/C (second compound 0.316 µM, first compound 1 µM): 15.6%
viability, T/C (second compound 0.316 µM, first compound 3.16 µM): 11.6%
viability, T/C (second compound 0.316 µM, first compound 10 µM): 9.78%
viability, T/C (second compound 1 µM, first compound 0.0316 µM): 16.1%
viability, T/C (second compound 1 µM, first compound 0.1 µM): 15.3%
viability, T/C (second compound 1 µM, first compound 0.316 µM): 11.9%
viability, T/C (second compound 1 µM, first compound 1 µM): 9.24%
viability, T/C (second compound 1 µM, first compound 3.16 µM): 7.76%
viability, T/C (second compound 1 µM, first compound 10 µM): 7.16%
viability, T/C (second compound 3.16 µM, first compound 0.0316 µM): 12.6%
viability, T/C (second compound 3.16 µM, first compound 0.1 µM): 11.4%
viability, T/C (second compound 3.16 µM, first compound 0.316 µM): 7.77%
viability, T/C (second compound 3.16 µM, first compound 1 µM): 7.76%
viability, T/C (second compound 3.16 µM, first compound 3.16 µM): 6.82%
viability, T/C (second compound 3.16 µM, first compound 10 µM): 3.79%
viability, T/C (second compound 10 µM, first compound 0.0316 µM): 8.21%
viability, T/C (second compound 10 µM, first compound 0.1 µM): 6.93%
viability, T/C (second compound 10 µM, first compound 0.316 µM): 5%
viability, T/C (second compound 10 µM, first compound 1 µM): 5.16%
viability, T/C (second compound 10 µM, first compound 3.16 µM): 3.49%
viability, T/C (second compound 10 µM, first compound 10 µM): 3.88%
